Measurements from patent US20250051327A1, “MALT-1 MODULATORS” (EXSCIENTIA AI LIMITED, priority 2020, published 2025).

Key:
[1] = target: Recombinant human MALT-1 (amino acids 340-824) (Homo sapiens (Human), UniProt Q9UDY8); experiment: MALT-1 inhibition assay (fluorogenic substrate Ac-LRSR-Rh110-DP); format: biochemical; conditions: recombinant human MALT-1, substrate Ac-LRSR-Rh110-DP
How it was run: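 MALT-1 at 3 nM final was reacted with 10 μM Ac-LRSR-Rh110-DP, with substrate addition starting the reaction. Incubation ran 60 minutes at 25° C in the dark. Percent inhibition from fluorescence across doses was fitted to a 4-parameter logistic to give IC50.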

[2] = test system: IL-2 secretion by human effector memory T cells (TEM); experiment: Effector memory T cells IL-2 release assay; format: cell-based; conditions: T-cell; human CD4+ effector memory T cells, CD3/CD28 bead stimulation, 24 h; read-out: CD4TC IL2 IC50
How it was run: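 Human CD4+ effector memory T cells from healthy-donor buffy coats were stimulated with anti-CD3/CD28 Dynabeads and exposed to 10 semi-log compound doses (0.1% DMSO) for 24 h at 37 °C. Supernatant IL-2 was measured by HTRF, and IC50 came from a 4-parameter logistic fit to maximal IL-2. Viability was checked by flow cytometry.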

Chain of Recombinant human MALT-1 (amino acids 340-824) (Q9UDY8 340-824): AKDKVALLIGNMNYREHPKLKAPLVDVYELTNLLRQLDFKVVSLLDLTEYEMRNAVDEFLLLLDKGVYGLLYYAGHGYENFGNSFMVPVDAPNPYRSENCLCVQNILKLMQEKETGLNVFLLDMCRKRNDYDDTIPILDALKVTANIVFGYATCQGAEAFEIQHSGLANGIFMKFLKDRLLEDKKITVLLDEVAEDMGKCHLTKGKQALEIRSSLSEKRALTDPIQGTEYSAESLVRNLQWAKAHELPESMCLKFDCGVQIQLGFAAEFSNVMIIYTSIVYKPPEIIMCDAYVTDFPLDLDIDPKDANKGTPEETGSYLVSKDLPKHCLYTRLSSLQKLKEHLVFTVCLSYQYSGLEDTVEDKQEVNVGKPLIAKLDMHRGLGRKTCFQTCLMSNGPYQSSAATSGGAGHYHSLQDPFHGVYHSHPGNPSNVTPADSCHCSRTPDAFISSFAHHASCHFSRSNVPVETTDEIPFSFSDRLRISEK

Row | SMILES | IC50 [1] | IC50 [2]
1 | CN(C(=O)[C@H]1CC[S@@](=N)(=O)CC1)[C@@H](c1ccc(N2CCC3(CC3)c3c2cnc2cc(F)nn32)cc1)C(F)(F)F (relative stereo) [CPD0072852, (1rel-s,4rel-s)-1-imino-N-methyl-1-oxo-N-[(1S)-2,2,2-trifluoro-1-(4-{4′-fluoro-2′,3′,7′,10′-tetraazaspiro[cyclopropane-1,13′-tricyclo[7.4.0.0^2,6]tridecane]-1′(9′),3′,5′,7′-tetraen-10′-yl}phenyl)ethyl]-1λ^6-thiane-4-carboxamide] | 28 nM | 65 nM
2 | CN(C(=O)[C@H]1CC[S@](=N)(=O)CC1)[C@@H](c1ccc(N2CCC3(CC3)c3c2cnc2cc(F)nn32)cc1)C(F)(F)F (relative stereo) [CPD0072853, (1rel-r,4rel-r)-1-imino-N-methyl-1-oxo-N-[(1S)-2,2,2-trifluoro-1-(4-{4′-fluoro-2′,3′,7′,10′-tetraazaspiro[cyclopropane-1,13′-tricyclo[7.4.0.0^2,6]tridecane]-1′(9′),3′,5′,7′-tetraen-10′-yl}phenyl)ethyl]-1λ^6-thiane-4-carboxamide] | 23 nM | 62 nM
3 | CN(C(=O)[C@H]1CC[S@@+]([O-])CC1)[C@@H](c1ccc(N2CCC3(CC3)c3c2cnc2cc(F)nn32)cc1)C(F)(F)F (relative stereo) [CPD0072932, (1rel-s,4rel-s)-N-methyl-1-oxo-N-[(1S)-2,2,2-trifluoro-1-(4-{4′-fluoro-2′,3′,7′,10′-tetraazaspiro[cyclopropane-1,13′-tricyclo[7.4.0.0^2,6]tridecane]-1′(9′),3′,5′,7′-tetraen-10′-yl}phenyl)ethyl]-1λ^4-thiane-4-carboxamide] | 49 nM | 56 nM
4 | CN(C(=O)[C@H]1CC[S@+]([O-])CC1)[C@@H](c1ccc(N2CCC3(CC3)c3c2cnc2cc(F)nn32)cc1)C(F)(F)F (relative stereo) [CPD0072933, (1rel-r,4rel-r)-N-methyl-1-oxo-N-[(1S)-2,2,2-trifluoro-1-(4-{4′-fluoro-2′,3′,7′,10′-tetraazaspiro[cyclopropane-1,13′-tricyclo[7.4.0.0^2,6]tridecane]-1′(9′),3′,5′,7′-tetraen-10′-yl}phenyl)ethyl]-1λ^4-thiane-4-carboxamide] | 33 nM | 58 nM
5 | COC[C@]1(C)CCN(c2ccc([C@H](N(C)C(=O)[C@H]3CC[S@@](=N)(=O)CC3)C(F)(F)F)cc2)c2cnc3cc(Cl)nn3c21 (relative stereo) [CPD0073131, (1rel-s,4rel-s)-N-[(1S)-1-[4-[(13rel-R)-4-chloro-13-(methoxymethyl)-13-methyl-2,3,7,10-tetrazatricyclo[7.4.0.0^2,6]trideca-1(9),3,5,7-tetraen-10-yl]phenyl]-2,2,2-trifluoro-ethyl]-1-imino-N-methyl-1-oxo-1λ^6-thiane-4-carboxamide] | 67 nM | 97 nM
6 | COC[C@]1(C)CCN(c2ccc([C@H](N(C)C(=O)[C@H]3CC[S@](=N)(=O)CC3)C(F)(F)F)cc2)c2cnc3cc(Cl)nn3c21 (relative stereo) [CPD0073132, (1rel-r,4rel-r)-N-[(1S)-1-[4-[(13rel-R)-4-chloro-13-(methoxymethyl)-13-methyl-2,3,7,10-tetrazatricyclo[7.4.0.0^2,6]trideca-1(9),3,5,7-tetraen-10-yl]phenyl]-2,2,2-trifluoro-ethyl]-1-imino-N-methyl-1-oxo-1λ^6-thiane-4-carboxamide] | 101 nM | 150 nM
7 | COC[C@@]1(C)CCN(c2ccc([C@H](N(C)C(=O)[C@H]3CC[S@@](=N)(=O)CC3)C(F)(F)F)cc2)c2cnc3cc(Cl)nn3c21 (relative stereo) [CPD0073133, (1rel-s,4rel-s)-N-[(1S)-1-[4-[(13rel-S)-4-chloro-13-(methoxymethyl)-13-methyl-2,3,7,10-tetrazatricyclo[7.4.0.0^2,6]trideca-1(9),3,5,7-tetraen-10-yl]phenyl]-2,2,2-trifluoro-ethyl]-1-imino-N-methyl-1-oxo-1λ^6-thiane-4-carboxamide] | 81 nM | 64 nM
8 | COC[C@@]1(C)CCN(c2ccc([C@H](N(C)C(=O)[C@H]3CC[S@](=N)(=O)CC3)C(F)(F)F)cc2)c2cnc3cc(Cl)nn3c21 (relative stereo) [CPD0073134, (1rel-r,4rel-r)-N-[(1S)-1-[4-[(13rel-S)-4-chloro-13-(methoxymethyl)-13-methyl-2,3,7,10-tetrazatricyclo[7.4.0.0^2,6]trideca-1(9),3,5,7-tetraen-10-yl]phenyl]-2,2,2-trifluoro-ethyl]-1-imino-N-methyl-1-oxo-1λ^6-thiane-4-carboxamide] | 85 nM | 57 nM
9 | COC[C@]1(C)CCN(c2ccc([C@H](N(C)C(=O)[C@H]3CC[S@@+]([O-])CC3)C(F)(F)F)cc2)c2cnc3cc(Cl)nn3c21 (relative stereo) [CPD0073135, (1rel-s,4rel-s)-N-[(1S)-1-[4-[(13rel-R)-4-chloro-13-(methoxymethyl)-13-methyl-2,3,7,10-tetrazatricyclo[7.4.0.0^2,6]trideca-1(9),3,5,7-tetraen-10-yl]phenyl]-2,2,2-trifluoro-ethyl]-N-methyl-1-oxo-1λ^4-thiane-4-carboxamide] | 106 nM | 130 nM
10 | COC[C@]1(C)CCN(c2ccc([C@H](N(C)C(=O)[C@H]3CC[S@+]([O-])CC3)C(F)(F)F)cc2)c2cnc3cc(Cl)nn3c21 (relative stereo) [CPD0073136, (1rel-r,4rel-r)-N-[(1S)-1-[4-[(13rel-R)-4-chloro-13-(methoxymethyl)-13-methyl-2,3,7,10-tetrazatricyclo[7.4.0.0^2,6]trideca-1(9),3,5,7-tetraen-10-yl]phenyl]-2,2,2-trifluoro-ethyl]-N-methyl-1-oxo-1λ^4-thiane-4-carboxamide] | 138 nM | 63 nM
11 | COC[C@@]1(C)CCN(c2ccc([C@H](N(C)C(=O)[C@H]3CC[S@@+]([O-])CC3)C(F)(F)F)cc2)c2cnc3cc(Cl)nn3c21 (relative stereo) [CPD0073137, (1rel-s,4rel-s)-N-[(1S)-1-[4-[(13rel-S)-4-chloro-13-(methoxymethyl)-13-methyl-2,3,7,10-tetrazatricyclo[7.4.0.0^2,6]trideca-1(9),3,5,7-tetraen-10-yl]phenyl]-2,2,2-trifluoro-ethyl]-N-methyl-1-oxo-1λ^4-thiane-4-carboxamide] | 90 nM | 45 nM
12 | COC[C@@]1(C)CCN(c2ccc([C@H](N(C)C(=O)[C@H]3CC[S@+]([O-])CC3)C(F)(F)F)cc2)c2cnc3cc(Cl)nn3c21 (relative stereo) [CPD0073138, (1rel-r,4 rel-r)-N-[(1S)-1-[4-[(13 rel-S)-4-chloro-13-(methoxymethyl)-13-methyl-2,3,7,10-tetrazatricyclo[7.4.0.0^2,6]trideca-1(9),3,5,7-tetraen-10-yl]phenyl]-2,2,2-trifluoro-ethyl]-N-methyl-1-oxo-1λ^4-thiane-4-carboxamide] | 79 nM | 55 nM
13 | CN1CC[C@H](C(=O)N(C)[C@@H](c2ccc(N3CCCc4c3cnc3cc(Cl)nn43)cc2)C(F)(F)F)CC1=O (relative stereo) [CPD0073141, (4rel-S)-N-[(1S)-1-(4-{4-chloro-2,3,7,10-tetraazatricyclo[7.4.0.0^2,6]trideca-1(9),3,5,7-tetraen-10-yl}phenyl)-2,2,2-trifluoroethyl]-N,1-dimethyl-2-oxopiperidine-4-carboxamide] | 67 nM | 197 nM
14 | CN1CC[C@@H](C(=O)N(C)[C@@H](c2ccc(N3CCCc4c3cnc3cc(Cl)nn43)cc2)C(F)(F)F)CC1=O (relative stereo) [CPD0073142, (4rel-R)-N-[(1S)-1-(4-{4-chloro-2,3,7,10-tetraazatricyclo[7.4.0.0^2,6]trideca-1(9),3,5,7-tetraen-10-yl}phenyl)-2,2,2-trifluoroethyl]-N,1-dimethyl-2-oxopiperidine-4-carboxamide] | 68 nM | 122 nM
15 | CN(C(=O)[C@H]1CCN(S(C)(=O)=O)C1)[C@@H](c1ccc(N2CCCc3c2cnc2cc(Cl)nn32)cc1)C(F)(F)F (relative stereo) [CPD0073143, (3rel-S)-N-[(1S)-1-(4-{4-chloro-2,3,7,10-tetraazatricyclo[7.4.0.0^2,6]trideca-1(9),3,5,7-tetraen-10-yl}phenyl)-2,2,2-trifluoroethyl]-1-methanesulfonyl-N-methylpyrrolidine-3-carboxamide] | 68 nM | 107 nM
16 | CN(C(=O)[C@@H]1CCN(S(C)(=O)=O)C1)[C@@H](c1ccc(N2CCCc3c2cnc2cc(Cl)nn32)cc1)C(F)(F)F (relative stereo) [CPD0073144, (3rel-R)-N-[(1S)-1-(4-{4-chloro-2,3,7,10-tetraazatricyclo[7.4.0.0^2,6]trideca-1(9),3,5,7-tetraen-10-yl}phenyl)-2,2,2-trifluoroethyl]-1-methanesulfonyl-N-methylpyrrolidine-3-carboxamide] | 66 nM | 116 nM
17 | CC(=O)N1CC[C@@H](C(=O)N(C)[C@@H](c2ccc(N3CCCc4c3cnc3cc(Cl)nn43)cc2)C(F)(F)F)C1 (relative stereo) [CPD0073188, (3rel-R)-1-acetyl-N-[(1S)-1-(4-{4-chloro-2,3,7,10-tetraazatricyclo[7.4.0.0^2,6]trideca-1(9),3,5,7-tetraen-10-yl}phenyl)-2,2,2-trifluoroethyl]-N-methylpyrrolidine-3-carboxamide] | 113 nM | 235 nM
